Measurements reported in US5684034A, “1H-indole-3-acetamide sPLA2 inhibitors” (Eli Lilly and Company, priority 1995, dated 1997).
Where two headings read alike, the source gives them in different places.

Target: T1, recombinant human secreted phospholipase A2 (Homo sapiens, UniProt P14555)
T1 sequence (P14555 21-144): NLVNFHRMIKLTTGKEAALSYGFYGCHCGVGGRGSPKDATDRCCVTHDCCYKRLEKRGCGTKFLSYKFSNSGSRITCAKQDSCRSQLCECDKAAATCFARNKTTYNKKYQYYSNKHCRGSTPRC
Assay: Human secreted phospholipase A2 inhibition test (chromogenic assay, diheptanoyl thio-PC substrate)
Type: biochemical
Conditions: pH 7.5, 40° C., 30 minutes, 405 nm
Experimental: The following chromogenic assay procedure was used to identify and evaluate inhibitors of recombinant human secreted phospholipase A2. The assay described herein has been adapted for high volume screening using 96 well microtiter plates.
A measured volume of racetic dipheptanoyl thio PC supplied in chloroform at a concentration of 100 mg/ml is taken to dryness and redissolved in 10 millimolar TRITON X-100™ nonionic detergent aqueous solution. Reaction Buffer is added to the solution, then DTNB to give the Reaction Mixture.
The reaction mixture thus obtained contains 1 mM diheptanoly thio-PC substrate, 0.29 mm Triton X-100™ detergent, and 0.12 mm DTMB in a buffered aqueous solution at pH 7.5.
1. Add 0.2 ml reaction mixture to all wells;
2. Add 10 ul test compound (or solvent blank) to appropriate wells, mix 20 seconds:
3. Add 50 nanograms of sPLA2 (10 microliters) to appropriate wells;
4. incubate plate at 40° C. for 30 minutes;
All compounds were tested in triplicate. […] Each sample was titrated in triplicate and result values were averaged for plotting and calculation of IC50 values. […] Each IC50 value was determined three times.

[1] = read-out: Inhibition of human secreted PLA2 IC50 ± mean deviation (3-5 tests)
[2] = Inhibition of human secreted PLA2 IC50 ± mean deviation (3-5 tests)

| SMILES | IC50 [1] | other results |
| --- | --- | --- |
| Cc1c(CC(N)=O)c2cc(O)ccc2n1Cc1ccccc1 [Example 2, 5-Hydroxy-2-methyl-1-(phenylmethyl)-1H-indole-3-acetamide] | – | IC50 [2]: 0.84 ± 0.38 µM |
| COc1ccc2c(c1)c(CC(N)=O)cn2Cc1ccccc1 [Example 3, 5-Methoxy-1-(phenylmethyl)-1H-indole-3-acetamide] | 3.7 ± 2.82 µM | – |
| COc1ccc2c(c1)c(CC(N)=O)c(C)n2Cc1c(Cl)cccc1Cl [Example 6, 1-(2,6-Dichlorophenylmethyl)-5-methoxy-2-methyl-1H-indole-3-acetamide] | 1.3 ± 0.29 µM | – |
| COc1ccc2c(c1)c(CC(N)=O)c(C)n2Cc1ccc(OCc2ccccc2)cc1 [Example 7, 1-[(4-Benzyloxyphenyl)methyl]-5-methoxy-2-methyl-1H-indole-3-acetamide] | 5.45 ± 1.62 µM | – |
| COc1ccc2c(c1)c(CC(N)=O)c(C)n2Cc1ccccn1 [Example 8, 5-Methoxy-2-methyl-1-[(2-pyridyl)methyl]-1H-indole-3-acetamide] | 21.4 ± 8.55 µM | – |
| CCCc1c(CC(N)=O)c2cc(OC)ccc2n1Cc1ccccc1 [Example 10, 5-Methoxy-1-(phenylmethyl)-2-propyl-1H-indole-3-acetamide] | 38.1 ± 2.82 µM | – |
| COc1ccc2c(c1)c(CC(N)=O)c(Cl)n2Cc1ccccc1 [Example 11, 2-Chloro-5-methoxy-1-(phenylmethyl)-1H-indole-3-acetamide] | 0.25 ± 0.03 µM | – |
| CCCCCCCCCCn1c(C)c(CC(N)=O)c2cc(OC)ccc21 [Example 14, 1-Decyl-5-methoxy-2-methyl-1H-indole-3-acetamide] | 8.48 ± 5.25 µM | – |
| Cc1c(CC(N)=O)c2cc(OCC(=O)O)ccc2n1Cc1ccccc1 [Example 19, 2-[[3-(2-Amino-2-oxoethyl)-2-methyl-1-(phenylmethyl)-1H-indol-5-yl]oxy]acetic acid] | – | IC50 [2]: 1.16 ± 0.41 µM |
| Cc1c(CC(N)=O)c2cc(OCCC(=O)O)ccc2n1Cc1ccccc1 [Example 21, 3-[[3-(2-Amino-2-oxoethyl)-2-methyl-1-(phenylmethyl)-1H-indol-5-yl]oxy]-propanic acid] | – | IC50 [2]: 0.43 ± 0.23 µM |
| NC(=O)Cc1c(Cl)n(Cc2ccccc2)c2ccc(OCCCC(=O)O)cc12 [Example 24, 4-[[3-(2-Amino-2-oxoethyl)-2-chloro-1-(phenylmethyl)-1H-indole-5-yl]oxy]butanoic acid] | – | IC50 [2]: 0.06 ± 0.02 µM |
| COC(=O)CCN(CCC(=O)OC)c1ccc2c(c1)c(CC(N)=O)c(C)n2Cc1ccccc1 [Example 26, 3,3'-[[3-(2-Amino-2-oxoethyl)-2-methyl-1-(phenylmethyl)-1H-indol-5-yl]imino]bis[propanoic acid]dimethyl ester] | 2.49 µM | – |
| Cc1c(CC(N)=O)c2cc(NCCC(=O)O)ccc2n1Cc1ccccc1 [Example 27, 3-[[3-(2-Amino-2-oxoethyl)-2-methyl-1-(phenylmethyl)-1H-indol-5-yl]amino]propanoic acid] | – | IC50 [2]: 3.3 ± 0.1 µM |
| Cc1c(CC(N)=O)c2cc(NCCC(=O)NN)ccc2n1Cc1ccccc1 [Example 28, 3-[[3-(2-Amino-2-oxoethyl)-2-methyl-1-(phenylmethyl)-1H-indol-5-yl]amino]propanoic acid hydrazide] | 1.55 ± 0.93 µM | – |
| COc1ccc2c(CC(N)=O)c(C)n(Cc3ccccc3)c2c1 [Example 29, 6-Methoxy-2-methyl-1-(phenylmethyl)-1H-indole-3-acetamide] | – | IC50 (unit printed um, read-out: Inhibition of human secreted PLA2 IC50 ± mean deviation (3-5 tests)): 1.23 ± 0.33 µM |
| CCOC(=O)CCCCOc1ccc2c(CC(N)=O)c(C)n(Cc3ccccc3)c2c1 [Example 33, 5-[[3-(2-Amino-2-oxoethyl)-2-methyl-1-(phenylmethyl)-1H-indol-6-yl]oxy]pentanoic acid ethyl ester] | – | IC50 [2]: 0.3 ± 0.12 µM |
| COc1cccc2c1c(CC(N)=O)c(C)n2Cc1ccccc1 [Example 35, 4-Methoxy-2-methyl-1-(phenylmethyl)-1H-indole-3-acetamide] | 2.36 ± 0.15 µM | – |
| Cc1c(CC(N)=O)c2c(O)cccc2n1Cc1ccccc1 [Example 36, 4-Hydroxy-2-methyl-1-(phenylmethyl)-1H-indole-3-acetamide] | – | IC50 [2]: 7.46 ± 1.66 µM |
| COc1ccc2c(c1)c(CC(N)=O)c(Br)n2Cc1ccccc1 [Example 42, 2-Bromo-5-methoxy-1-(phenylmethyl)-1H-indole-3-acetamide] | 0.23 ± 0.06 µM | – |
| CSc1c(CC(N)=O)c2cc(O)ccc2n1Cc1ccccc1 [Example 44, 5-Hydroxy-2-(methylthio)-1-(phenylmethyl)-1H-indole-3-acetamide] | – | IC50 (unit printed aM, read-out: Inhibition of human secreted PLA2 IC50 ± mean deviation (3-5 tests)): 0.38 ± 0.14 µM |
| CSc1c(CC(N)=O)c2cc(OCCCC(=O)O)ccc2n1Cc1ccccc1 [Example 46, 4-[[3-(2-Amino-2-oxoethyl)-2-(methylthio)-1-(phenylmethyl)-1H-indol-5-yl]oxy]butanoic acid] | – | IC50 [2]: 0.16 ± 0.19 µM |
| CSc1c(CC(N)=O)c2cc(OCCCC(N)=O)ccc2n1Cc1ccccc1 [Example 47, 5-(4-Amino-4-oxobutoxy)-2-(methylthio)-1-(phenylmethyl)-1H-indole-3-acetamide] | – | IC50 [2]: 0.09 ± 0.06 µM |
| CCCCCCCCCCCCCCn1c(C)c(CC(N)=O)c2cc(OC)ccc21 [Example 48, 5-Methoxy-2-methyl-1-tetradecyl-1H-indole-3-acetamide] | > 100 µM | – |
| CCCCCCCCCCCCCCn1c(C)c(CC(N)=O)c2cc(OCCCC(=O)O)ccc21 [Example 49] | 0.47 ± 0.05 µM | – |
| CCCCCCn1c(C)c(CC(N)=O)c2cc(OCCCC(=O)O)ccc21 [Example 50] | 2.47 ± 1.31 µM | – |
| CCCCCCCCn1c(C)c(CC(N)=O)c2cc(OC)ccc21 [Example 51, 5-Methoxy-2-methyl-1-octyl-1H-indole-3-acetamide] | 8.28 ± 4.33 µM | – |
| CCCCCCCCn1c(C)c(CC(N)=O)c2cc(OCCCC(=O)O)ccc21 [Example 52] | 0.77 ± 0.27 µM | – |
| CCCCCCCCCCn1c(C)c(CC(N)=O)c2cc(OCCCC(=O)O)ccc21 [Example 53] | 0.68 µM | – |
| Cc1c(CC(N)=O)c2cc(OCCCC(=O)O)ccc2n1CC1CCCCC1 [Example 54] | 0.65 ± 0.15 µM | – |
| CCc1c(CC(N)=O)c2cc(O)ccc2n1Cc1ccccc1 [Example 56, 2-Ethyl-5-hydroxy-1-(phenylmethyl)-1H-indole-3-acetamide] | 0.34 ± 0.1 µM | – |

Continued, in another order:

| IC50 [1] | SMILES | other results |
| --- | --- | --- |
| 1.33 ± 0.45 µM | Cc1ccc2c(CC(N)=O)c(C)n(Cc3ccccc3)c2c1 [Example 1, 2,6-Dimethyl-1-(phenylmethyl)-1H-indole-3-acetamide] | – |
| 0.92 ± 0.24 µM | Cc1c(CC(N)=O)c2cc(OCc3ccccc3)ccc2n1Cc1ccccc1 [Example 13, 5-Benzyloxy-2-methyl-1-(phenylmethyl)-1H-indole-3-acetamide] | – |
| 1.51 ± 0.58 µM | Cc1c(CC(N)=O)c2cc(C(N)=O)ccc2n1Cc1ccccc1 [Example 15, 5-Aminocarbonyl-2-methyl-1-(phenylmethyl)-1H-indole-3-acetamide] | – |
| 1.61 ± 0.44 µM | Cc1c(CC(N)=O)c2cc(N)ccc2n1Cc1ccccc1 [Example 17, 5-Amino-2-methyl-1-(phenylmethyl)-1H-indole-3-acetamide] | – |
| 1.05 ± 0.11 µM | COC(=O)CCOc1ccc2c(c1)c(CC(N)=O)c(C)n2Cc1ccccc1 [Example 20, 3-[[3-(2-Amino-2-oxoethyl)-2-methyl-1-(phenylmethyl)-1H-indol-5-yl]oxy]-propanic acid methyl ester] | – |
| 3.34 ± 0.46 µM | COC(=O)CCNc1ccc2c(c1)c(CC(N)=O)c(C)n2Cc1ccccc1 [Example 25, 3-[[3-(2-Amino-2-oxoethyl)-2-methyl-1-(phenylmethyl)-1H-indol-5-yl]amino]propanoic acid methyl ester] | – |
| 3.61 ± 0.75 µM | Cc1c(CC(N)=O)c2ccc(O)cc2n1Cc1ccccc1 [Example 30, 6-Hydroxy-2-methyl-1-(phenylmethyl)-1H-indole-3-acetamide] | – |
| 0.45 ± 0.08 µM | CCOC(=O)CCCOc1ccc2c(CC(N)=O)c(C)n(Cc3ccccc3)c2c1 [Example 31, 4-[[3-(2-Amino-2-oxoethyl)-2-methyl-1-(phenylmethyl)-1H-indol-6-yl]oxy]butanoic acid ethyl ester] | – |
| 12.2 ± 0.55 µM | Cc1c(CC(N)=O)c2ccc(OCCCC(=O)O)cc2n1Cc1ccccc1 [Example 32, 4-[[3-(2-Amino-2-oxoethyl)-2-methyl-1-(phenylmethyl)-1H-indol-6-yl]oxy]butanoic acid] | – |
| 7.96 ± 1.22 µM | Cc1c(CC(N)=O)c2ccc(OCCCCC(=O)O)cc2n1Cc1ccccc1 [Example 34, 5-[[3-(2-Amino-2-oxoethyl)-2-methyl-1-(phenylmethyl)-1H-indol-6-yl]oxy]pentanoic acid] | – |
| 9.44 ± 1.44 µM | CCOC(=O)CCCOc1cccc2c1c(CC(N)=O)c(C)n2Cc1ccccc1 [Example 37, 4-[[3-(2-Amino-2-oxoethyl)-2-methyl-1-(phenylmethyl)-1H-indol-4-yl]oxy]butanoic acid ethyl ester] | – |
| 0.07 ± 0.03 µM | NC(=O)Cc1c(Br)n(Cc2ccccc2)c2ccc(OCCCC(=O)O)cc12 [Example 43, 4-[[3-(2-Amino-2-oxoethyl)-2-bromo-1-(phenylmethyl)-1H-indol-5-yl]oxy]butanoic acid] | – |
| 1.55 ± 0.51 µM | CCOC(=O)CCCOc1ccc2c(c1)c(CC(N)=O)c(SC)n2Cc1ccccc1 [Example 45, 4-[[3-(2-Amino-2-oxoethyl)-2-(methylthio)-1-(phenylmethyl)-1H-indol-5-yl]oxy]butanoic acid ethyl ester] | – |
